Source: patent publication US7132449B2, “Inhibitors of cruzipain and other cysteine proteases” (Amura Therapeutics Limited, priority 2001, dated 2006)

Legend:
Cruzipain = Cruzipain (Trypanosoma cruzi, UniProt P25779); test: Trypanosoma cruzi cruzipain peptidase activity assay (Ki); type: biochemical; conditions: wild-type cruzipain from Trypanosoma cruzi Dm28 epimastigotes, pH 6.75, 25±1° C.
Experimental: (§1) Assay protocols were based on literature precedent (Table 1; Barrett, A. J., Rawlings, N. D. and Woessner, J. F., 1998, Handbook of Proteolytic Enzymes, Academic Press, London and references therein) and modified as required to suit local assay protocols. Enzyme was added as required to initiate the reaction and the activity, as judged by the change in fluorescence upon conversion of substrate to product, was monitored over time. All assays were carried out at 25±1° C.
Wild-type cruzipain, derived from Trypanosoma cruzi Dm28 epimastigotes, was obtained from Dr. Julio Scharfstein (Instituto de Biofisica Carlos Chagas Filho, Universidade Federal do Rio de Janeiro, R10 de Janeiro, Brazil). Activity assays were carried out in 100 mM sodium phosphate, pH 6.75 containing 1 mM EDTA and 10 mM L-cysteine using 2.5 nM enzyme. Ac-Phe-Arg-AMC (KM^app≈12 μM) and D-Val-Leu-Lys-AMC (KM^app≈4 μM) were used as the substrates. Routinely, Ac-FR-AMC was used at a concentration equivalent to KM^app and D-Val-Leu-Lys-AMC was used at a concentration of 25 μM. The rate of conversion of substrate to product was derived from the slope of the increase in fluorescence monitored continuously over time.
(§2) The apparent inhibition constant (Ki) for each compound was determined on the basis that inhibition was reversible and occurred by a pure-competitive mechanism. The Ki values were calculated, from the dependence of enzyme activity as a function of inhibitor concentration, by direct regression analysis (Prism v 3.02) using Equation 2 (Cornish-Bowden, A., 1995.).
(§3) In situations where the apparent dissociation constant (Ki^app) approached the enzyme concentrations, the Ki^app values were calculated using a quadratic solution in the form described by Equation 3 (Morrison, J. F. Trends Biochem. Sci., 7, 102–105, 1982; Morrison, J. F. Biochim. Biophys. Acta, 185, 269–286, 1969; Stone, S. R. and Hofsteenge, J. Biochemistry, 25, 4622–4628, 1986).

Bovine Cathepsin S = molecular target: T1, Bovine Cathepsin S (Bos taurus, UniProt P25326); test: Cathepsin peptidase activity assay, bovine cathepsin S (Ki); type: biochemical; conditions: pH 6.5, 25±1° C.
T1 construct: purchased CN Biosciences
T1 sequence (P25326 115-331): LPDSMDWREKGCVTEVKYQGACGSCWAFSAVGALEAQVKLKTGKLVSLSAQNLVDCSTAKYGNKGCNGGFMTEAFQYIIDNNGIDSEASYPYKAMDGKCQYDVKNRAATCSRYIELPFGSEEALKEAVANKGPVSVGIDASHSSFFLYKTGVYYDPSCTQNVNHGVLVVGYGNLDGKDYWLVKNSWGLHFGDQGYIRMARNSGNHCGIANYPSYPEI
Experimental: as §1
(§4) Bovine cathepsin S, human cathepsin L, human cathepsin H and human cathepsin B were obtained from CN Biosciences. Recombinant human cathepsin S, human cathepsin K and human cathepsin X were obtained from Dr. Boris Turk (Josef Stefan Institute, Ljubljana, Slovenia). Unless otherwise stated, all peptidase activity assays were carried out in 10 mM bis-tris-propane (BTP), pH 6.5 containing 1 mM EDTA, 5 mM 2-mercaptoethanol and 1 mM CaCl2. Human cathepsin H activity assays were carried out in 10 mM BTP pH 6.5, 142 mM […], 1 mM CaCl2, 1 mM EDTA, 1 mM DTT, 0.035 mM Zwittergent 3–16. Human cathepsin K assays were carried out in 100 mM sodium acetate; pH 5.5 containing 20 mM L-cysteine and 1 mM EDTA (Bossard, M. J., et. al., J. Biol. Chem., […], 12517–12524, 1996). […] The final enzyme concentrations used in the assays were 0.5 nM bovine cathepsin S, 1 nM cathepsin L, 0.1 nM cathepsin B, 0.25 nM Cathepsin K; 1 nM cathepsin X and 10 nM cathepsin H. For the inhibition assays, the substrates used for cathepsin S, cathepsin L, cathepsin B, cathepsin K and cathepsin H were boc-Val-Leu-Lys-AMC (KM^app≈30 μM, Ac-Phe-Arg-AMC (KMaPP 20 EM), Z-Phe-Arg-AMC (KM^app≈40 μM), Z-Leu-Arg-AMC (KM^app≈2 μM); Bz-Phe-Val-Arg-AMC (KM^app≈150 μM) respectively. In each case the substrate concentration used in each assay was equivalent to the KM^app. The rate of conversion of substrate to product was derived from the slope of the increase in fluorescence monitored continuously over time.
as §2, §3

Human Cathepsin L = molecular target: T2, Human Cathepsin L (Homo sapiens, UniProt P07711); test: Cathepsin peptidase activity assay, human cathepsin L (Ki); type: biochemical; conditions: pH 6.5, 25±1° C.
T2 construct: purchased CN Biosciences
T2 sequence (P07711 114-333): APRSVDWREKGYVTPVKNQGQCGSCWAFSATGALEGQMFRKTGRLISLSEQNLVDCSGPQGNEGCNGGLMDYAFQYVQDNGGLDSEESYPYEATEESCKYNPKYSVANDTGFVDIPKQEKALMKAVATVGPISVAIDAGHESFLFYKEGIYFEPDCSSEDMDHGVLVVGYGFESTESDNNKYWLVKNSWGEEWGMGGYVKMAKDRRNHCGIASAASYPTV
Experimental: as §1, §4, §2, §3

Human Cathepsin K = molecular target: T3, Human Cathepsin K (Homo sapiens, UniProt P43235); test: Cathepsin peptidase activity assay, human cathepsin K (Ki); type: biochemical; conditions: pH 5.5, 25±1° C.
T3 construct: Dr. Boris Turk (Josef Stefan Institute, Ljubljana, Slovenia)
T3 sequence (P43235 115-329): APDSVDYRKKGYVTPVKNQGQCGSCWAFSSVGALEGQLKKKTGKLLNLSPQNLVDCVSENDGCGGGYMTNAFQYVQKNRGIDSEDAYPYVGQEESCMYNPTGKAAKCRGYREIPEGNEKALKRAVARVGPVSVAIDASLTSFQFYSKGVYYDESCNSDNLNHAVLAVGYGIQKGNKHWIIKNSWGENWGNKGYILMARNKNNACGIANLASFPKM
Experimental: as §1, §4, §2, §3

[1] = test system: Trypanosoma cruzi infection; conditions: during the acute phase of infection; cited from earlier work
[2] = test system: Trypanosoma cruzi-infected mammalian cell cultures; conditions: added to Trypanosoma cruzi-infected mammalian cell cultures; cited from earlier work

Chain of Cruzipain (P25779 whole entry): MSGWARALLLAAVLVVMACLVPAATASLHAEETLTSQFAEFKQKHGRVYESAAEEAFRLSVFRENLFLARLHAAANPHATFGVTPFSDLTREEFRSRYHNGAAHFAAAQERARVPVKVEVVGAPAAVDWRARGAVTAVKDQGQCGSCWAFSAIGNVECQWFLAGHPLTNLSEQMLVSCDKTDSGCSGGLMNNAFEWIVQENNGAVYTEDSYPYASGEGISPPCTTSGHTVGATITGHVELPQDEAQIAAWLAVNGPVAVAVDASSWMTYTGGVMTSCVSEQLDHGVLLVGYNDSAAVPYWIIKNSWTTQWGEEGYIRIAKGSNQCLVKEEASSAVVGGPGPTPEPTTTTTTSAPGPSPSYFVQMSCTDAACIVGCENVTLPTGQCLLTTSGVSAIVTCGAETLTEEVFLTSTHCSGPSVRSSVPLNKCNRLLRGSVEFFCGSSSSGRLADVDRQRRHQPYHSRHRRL

SMILES	Ki (Cruzipain) [µM]	Ki (Bovine Cathepsin S) [µM]	Ki (Human Cathepsin L) [µM]	Ki (Human Cathepsin K) [µM]	cure [1] [%]	effect on replication and differentiation of the parasite [2]
C[C@H]1OCC(=O)[C@H]1NC(=O)[C@H](Cc1ccccc1)OCc1cccc2ccccc12 (racemic) [Example 49]	> 100	> 100	< 10	> 100	–	–
C[C@@H]1OCC(=O)[C@H]1NC(=O)[C@H](CC1CCCCC1)SCc1ccco1 [Example 4, (2S, 3S) 3-Cyclohexyl-2-(furan-2-ylmethylsulfanyl)-N-(2-methyl-4-oxo-tetrahydrofuran-3-yl)-propionamide]	> 100	< 10	> 100	> 100	–	–
CC(C)C[C@H](CC(=O)n1ccc(-c2ccccc2)c1)C(=O)N[C@@H]1C(=O)CO[C@@H]1C [Example 22, (2R, 3S) 4-Methyl-2-[2-oxo-2-(3-phenyl-pyrrol-1-yl)-ethyl]-pentanoic acid (2-methyl-4-oxo-tetrahydrofuran-3-yl)-amide]	< 5	> 50	> 100	> 5	–	–
O=C(Cn1ccnc1[N+](=O)[O-])NCc1ccccc1 [benznidazole]	–	–	–	–	~60	–
CC(C)CC(C(=O)N[C@H]1C(=O)CO[C@@H]1C)c1cccc(-c2ccccc2)c1 (mixture of isomers) [Example 46, (2R, 3R) 2-Biphenyl-3-yl-4-methyl-pentanoic acid (2-methyl-4-oxo-tetrahydrofuran-3-yl)-amide]	> 10	> 20	> 5	< 1	–	–
CC(NC(=O)C(Cc1ccccc1)NC(=O)OCc1ccccc1)C(=O)CF (stereo not drawn) [Z-Phe-Ala-FMK]	–	–	–	–	–	blocked replication and differentiation of the parasite
